Experimental findings from patent publication US4886915A, “Water soluble organic ammonium per halides” (priority 1988, dated 1989) are described below.

The first data set in a line: Perbromide closed-bottle shelf life stability at ambient temperature. Conditions: 17520 h. How it is done: (§1) In order to determine the shelf life stability of the perbromide solutions, a series of studies were conducted to determine the percent bromine lost over time. The following tables shown below list the perbromides studied and the percent oxidizable bromine lost over time. The perbromides studied were kept in closed bottles in ambient conditions (Table 7) and at 50° C.
“Ethanolammonium Perbromide [Compound #1]”: the “Relative Change in % Br2” value is listed as 4.0%.
Still for that read-out and setting: next, “Ethanolammonium Perbromide [Compound #21]”: 2.0%; Propylammonium Perbromide [compound 22]: 2.3%.

Still in this data set, the particulars now being: ambient, time elapsed 24 months (#3 17, #11 16, #23 22 months).
For the molecule “Dibutylammonium Perbromide [compound 11]”, the “Change in % Br2” value turned out to be 2.1% and the “Final Ox. Br2” value is listed as 41.1 % by Weight.
For “Diethanolammonium Perbromide [Compound #4]”, in that order: 2.0% and 35.0 % by Weight.
The matching figures for “Ethanolammonium Perbromide [Compound #1]”: 1.6% and 38.5 % by Weight.
The matching figures for Propylammonium Perbromide [Compound #3]: 0.3% and 41.0 % by Weight.

The same data set, now with this note: ambient, time elapsed 24 months (#3 17, #11 16, #23 22 months), 1.0512e+06 min.
With “Dibutylammonium Perbromide [compound 11]”, the “Relative Change in % Br2” value is on record as 4.9%.
Still for that read-out and setting: as for Propylammonium Perbromide [Compound #3], the figure is 0.7%.

Staying with this data set, now noted: ambient, time zero.
With “Dibutylammonium Perbromide [compound 11]”, the “Initial Ox. Br2” value turned out to be 43.2 % by Weight.
Still for that read-out and setting: as for “Diethanolammonium Perbromide [Compound #4]”, the figure is 37.0 % by Weight; as for “Ethanolammonium Perbromide [Compound #1]”, 40.1 % by Weight.
The same measure, in the same setting: as for Propylammonium Perbromide [Compound #3], the figure is 41.3 % by Weight.

A further data set in a line: Perbromide closed-bottle shelf life stability at 50° C. The settings on record: 50° C., time elapsed 40 (months). As for the experimental part: as §1
Consider “Diethanolammonium Perbromide [Compound #4]”, for which the “Change in % Br2” value turned out to be 7.0% and the “Final Ox. Br2” value was 30.0 % by Weight.
For “Ethanolammonium Perbromide [Compound #1]”, in that order: 1.8% and 39.0 % by Weight.
For Propylammonium Perbromide [Compound #3], the “Change in % Br2” value was 2.0% and the “Final Ox. Br2” value worked out at 39.0 % by Weight.

The same data set, now with this note: 50° C., time elapsed 40 (months), 1.752e+06 min.
Consider Propylammonium Perbromide [Compound #3], for which the “Relative Change in % Br2” value is reported as 4.9%.

Still in this data set, the particulars now being: 50° C., time zero.
Turning to “Diethanolammonium Perbromide [Compound #4]”, the “Initial Ox. Br2” value turned out to be 37.0 % by Weight.
Turning to “Ethanolammonium Perbromide [Compound #1]”, the “Initial Ox. Br2” value is on record as 40.8 % by Weight.
Still for that read-out and setting: next, Propylammonium Perbromide [Compound #3]: 41.0 % by Weight.

The data set is the same for the next values; noted with them: 29200 h.
Regarding “Ethanolammonium Perbromide [Compound #1]”, the “Relative Change in % Br2” value stood at 4.4%.
With “Ethanolammonium Perbromide [Compound #21]”, the “Relative Change in % Br2” value is 3.1%.
Still for that read-out and setting: as for Propylammonium Perbromide [compound 22], the figure is 2.7%.

The next data set can be described thus: Water solubility of perbromides.
Details: not given
Turning to “Diethanolammonium Perbromide [Compound #20]”, the “water solubility (in words)” value is on record as “very soluble in water”.
Take “Diethylethanolammonium [compound 14, reference compound]”: the “water solubility (in words)” value is on record as “only sparingly soluble in water”.

The same data set, now with this note: in water; Tables 2 and 3.
The molecule “Dibutylammonium Perbromide [compound 11]” returned a Solubility of 1.0 g./100 g H2O.
Same read-out and setting: as for “Diethylethanolammonium [compound 14, reference compound]”, the figure is 0.1 g./100 g H2O.

A short description of another data set: Vapor pressure of aqueous organic ammonium perbromides (isoteniscope). The settings on record: 26° C.; bromine water approx. 3.5% by weight, NaBr3 and perbromides roughly 40% Br2.
Consider `BrBr` [compound 35, Pure Bromine], for which the “vapor pressure of bromine” value is “approximately 220 mm Hg”.
Still for that read-out and setting: next, Bromine in H2 O [compound 34]: 210 mm Hg; Sodium (NaBr3) [compound 33]: 140 mm Hg.

The same data set, now with this note: @ 26° C.; Table 9.
Molecule `BrBr` [compound 35, Pure Bromine] showed a Vp of 223 mmHg.
On the same count and under the same terms, next, Bromine in H2 O [compound 34]: 210 mmHg; “Dibutylammonium Perbromide [compound 11]”: 38 mmHg; “Diethanolammonium Perbromide [Compound #4]”: 49 mmHg.
Same read-out and setting: as for “Dimethylethanolammonium Perbromide [Compound #7, reference compound]”, the figure is 30 mmHg; as for “Methylethanolammonium Perbromide [compound 5]”, 28 mmHg; as for Propylammonium Perbromide [Compound #3], 36 mmHg.
On the same count and under the same terms, as for Sodium (NaBr3) [compound 33], the figure is 145 mmHg; as for “Tributylammonium Perbromide [compound 12, reference compound]”, 28 mmHg.

The next data set is described as follows: Titration for oxidizable bromine (Standard Methods for the Examination of Water and Waste Water, Method 408A). Conditions: Table 1; aqueous solution prepared from 48% HBr.
For “Ethylethanolammonium Perbromide [compound 6]”, the “Tit. Ox. Br2” value was determined as 37.7 % by Weight.
Turning to Hexylammonium Perbromide [compound 8], the “Tit. Ox. Br2” value is recorded as 36.1 % by Weight.
For the molecule “Methylethanolammonium Perbromide [compound 5]”, the “Tit. Ox. Br2” value worked out at 39.3 % by Weight.
The same measure, in the same setting: as for Octylammonium Perbromide [compound 9], the figure is 34.7 % by Weight; as for Propylammonium Perbromide [Compound #3], 39.3 % by Weight.

The data set is the same for the next values; noted with them: Table 2; perbromide separated as bottom viscous liquid phase.
For the molecule “Dibutylammonium Perbromide [compound 11]”, the “Tit. Ox. Br” value amounted to 40.9 % by Weight.
The same measure, in the same setting: next, “Diethylethanolammonium [compound 14, reference compound]”: 42.3 % by Weight; “Dipropylammonium Perbromide [compound 10]”: 45.1 % by Weight; “Tributylammonium Perbromide [compound 12, reference compound]”: 36.0 % by Weight.

Staying with this data set, now noted: Table 3; crystalline perbromide precipitated out of aqueous solution.
On to 1,6-Hexanediammonium [compound 16], for which the “Tit. Ox. Br” value worked out at 51.8 % by Weight.

Still in this data set, the particulars now being: Table 4; concentrated (74.1% hydrobromide, #17) and anhydrous (100%, #18-20).
Take “Diethanolammonium Perbromide [Compound #20]”: the “Tit. Ox. Br” value amounted to 45.3 % by Weight.
On the same count and under the same terms, next, “Ethanolammonium Perbromide [Compound #17]”: 47.3 % by Weight.
Take “Ethanolammonium Perbromide [Compound #18]”: the “Tit. Ox. Br” value is given as 51.8 % by Weight.
For the molecule “Propylammonium Perbromide [Compound #19]”, the “Tit. Ox. Br” value was determined as 53.2 % by Weight.

Staying with this data set, now noted: Table 9.
`BrBr` [compound 35, Pure Bromine]: the “Ox. Br2 of the sample used for vapor pressure” value was 100 % by Weight.
As to Bromine in H2 O [compound 34], the “Ox. Br2 of the sample used for vapor pressure” value amounted to 3.5 % by Weight.
Same read-out and setting: as for “Methylethanolammonium Perbromide [compound 5]”, the figure is 39.3 % by Weight; as for Propylammonium Perbromide [Compound #3], 39.3 % by Weight; as for “Tributylammonium Perbromide [compound 12, reference compound]”, 37.5 % by Weight.
